Measurements from patent US20150159115A1, “PURIFICATION OF DPA ENRICHED OIL” (Omega Protein Corporation, priority 2013, published 2015).
Entries after “also recorded” stand apart in the source; their conditions may differ. Read-outs that look alike come from different tables or passages of the source.

Legend:
THP-1 cells [1] = experiment: Prostaglandin E2 production by LPS-stimulated THP-1 macrophages after fatty acid incubation; format: cell-based; conditions: fatty acid 50 and 100 μM 24 h, then LPS 24 h
Method: (§1) THP-1 cells were maintained in RPMI 1640+2 mM L-Glutamine, 10 mM HEPES, 1 mM sodium pyruvate, 4500 mg/L glucose, and 1500 mg/L sodium bicarbonate; supplemented with 3.5 μL/L of 2-mercaptoethanol and 10% fetal bovine serum (FBS). Cell line was maintained in 75 cm^2 filtered cap flasks in a 37° C. incubator with 5% CO2. THP-1 cells were seeded in 24 well plates at 5×10^5 cells/mL using 600 μL/well and allowed to differentiate into macrophages (MΦ) for 72 h with phorbol 12-myristate 13-acetate (PMA) at a final concentration of 50 ng/mL.
(§2) Experiment 2: Previously differentiated MΦ were incubated with fatty acids as described in ‘Experiment 1’ for 24 hours. At the 24 h time point the cells were then stimulated with lipopolysaccharide from E. coli 0111:B4 for another 24 hours. The plates were centrifuged at 1200×g for 5 minutes and supernatant was then collected and analyzed for cytokines. The MΦ were scraped off the plates and fatty acids were isolated as described in the ‘Animal Portion’. The fatty acid profiles of the MΦ were determined as previously described (Wang, et al., 2010, Clin. Nutr., DOI: 10.1016/j.clnu.2013.04.009).
The objective of this study was to determine if docosapentaenoic acid n-3 (DPAn3) enrichment of macrophages (MΦ) changed their inflammatory response relative to saturated (S), mono-unsaturated (MU), and other poly-unsaturated (PU) fatty acids (FA). […]

[2] = test system: murine peritoneal macrophages; conditions: cited from earlier work
THP-1 cells [3] = experiment: Cytokine (TNF-α, MCP-1, IL-6) release by LPS-stimulated THP-1 macrophages after fatty acid incubation; format: cell-based; conditions: for Release of cytokines (TNF-α, MCP-1, IL-6) by THP-1 macrophages compared to control macrophages: fatty acid 50 and 100 μM 24 h, then LPS 24 h; for Release of cytokines by THP-1 macrophages at increasing fatty acid concentration: highest 100 μM
Method: as §1
Experiment 1: Prior to incubation with individual fatty acids, the cells were starved for 8 h in a 2% lipo-free FBS RPMI medium. Individual fatty acids were added in duplicate into the 24 well plate at two concentrations, 50 μM and 100 μM. Every assay was cultured in three runs with duplicates in each run pooled. After incubation for 24 h with fatty acids the MΦ were scraped off the plates and fatty acids were isolated as described in the ‘Animal Tests’ portion of this Example. The fatty acid profiles of the MΦ were determined as previously described (Wang, et al., 2010, Clin. Nutr., DOI: 10.1016/j.clnu.2013.04.009).
as §2
A linear mixed effects model was used in R, lme in the nlme package, for estimating treatment effects on cytokine production in LPS stimulated THP-1 cells. The fixed effects fit were treatment, FA concentration, and when significant LPS concentration was fit as a covariate, the plate cells were cultured on nested within run was fit as a random effect. Least squares means were analyzed as outlined above and pairwise comparisons were made between treatments for FA concentration, or where significant LPS concentration.
The objective of this study was to determine if docosapentaenoic acid n-3 (DPAn3) enrichment of macrophages (MΦ) changed their inflammatory response relative to saturated (S), mono-unsaturated (MU), and other poly-unsaturated (PU) fatty acids (FA). Differentiated THP-1 cells were incubated with one of 11 FA (50 and 100 μM) of varying degrees of unsaturation or no FA for 24 h prior to 24 h of stimulation with lipopolysaccharide from E. coli. Fatty acids were collected from MΦ without stimulation to determine the fatty acid profiles. Media was collected from MΦ post-stimulation and probed for prostaglandin E2, and cytokines, including tumor necrosis factor-α, monocyte chemoattractant protein-1, and interleukin-6. Prostaglandin E2 production was greater (P<0.05) for AA than all other FA, and omega-3 PUFA decreased (P<0.01) PGE2 compared to n6 PUFA and all other FA.

LDLr−/− mice [4] = experiment: Fluorescence intensity of inflammatory markers in brain microvessel (cerebrovasculature) of mice; format: in vivo, mouse; conditions: relative to control = 1.00
Description: (§3) 48 male LDLr−/− mice (8-10 weeks of age, ˜20 g) were obtained from Jackson Laboratories (stock #2207) and allowed to acclimate to the cages, room, and feeding design for 12 days. After the acclimation period mice were weighed and randomly assigned to one of six treatments. Mice were fed an isolipid (20% total fatty acids w/w), isonitrogenous, and 0.2% cholesterol (w/w) diet, which is considered atherogenic (Ain76, 58TQ TestDiet®) as a base diet. This base diet was formulated to meet or exceed all nutrient and energy requirements for a growing mouse. The treatments were added to the base diet (0.76% w/w of the total diet) and was made once at the beginning of the study, separated into weekly aliquots, stored at −80° C., allowed to thaw at 4° C. for 2 days prior to feeding, and stored at 4° C. until fed. A sample from each weekly aliquot was collected, composited, and archived for fatty acid analysis at a later date. The treatments were as follows: (1) Negative control diet, 3.5% of the total fatty acids were replaced with milk fat (the only source of fat in the base diet), (2) 3.5% of the total fatty acids were replaced with purified ethyl esters of DHA, (3) 3.5% of the total fatty acids were replaced with purified ethyl esters of DPAn3, (4) 3.5% of the total fatty acids were replaced with purified ethyl esters of EPA, (5) 3.5% of the total fatty acids were replaced with omega-3 fatty acids from Lovaza® (GlaxoSmithKline), and (6) 3.5% of the total fatty acids were replaced with omega-3 fatty acids from ΩmegaActiv® DPA 5000 (Omega Protein Inc., Houston, Tex.; Table 1).
(§4) The objectives of these studies were to compare the effects of replacing 3.5% of the total fatty acids with DPAn3, EPA, DHA, and commercial combinations of EPA, DPAn3, and DHA on serum lipid profiles, brain inflammation, and the development of atherosclerosis in LDLr−/− mice fed an atherogenic diet for 20 weeks and [2] to determine if DPAn3 enrichment of macrophages (50 and 100 μM) changed their lipopolysaccharide stimulated inflammatory profile relative to saturated (S), mono-unsaturated (MU), and other omega-6 and omega-3 poly-unsaturated (PU) fatty acids (FA).
Flourescence intensity (relative) of brain microvessel

LDLr−/− mice [5] = experiment: Fluorescence intensity of inflammatory markers in brain hippocampus of mice; format: in vivo, mouse; conditions: relative to control = 1
Description: as §3, §4

LDLr−/− mice [6] = experiment: TNF-α concentration in adipose tissue of mice fed different omega-3 products; conditions: mouse, in vivo
Description: as §3
TNF-α concentration in adipose tissue of mice fed with different omega-3 products

## CCCCC/C=C\C/C=C\C/C=C\C/C=C\CCCC(=O)O [AA, Arachidonic acid]
THP-1 cells [1]
  Prostaglandin E2 production by THP-1 macrophages: greater; also recorded: increased greatly
[2]; AA at 2-5 μM, increasing LPS concentrations
  TNF-α production: completely inhibited
[2]; AA at concentrations as low as 1 μM
  TNF-α production: decreased TNF-α production
THP-1 cells [3]
  Release of cytokines (TNF-α, MCP-1, IL-6) by THP-1 macrophages compared to control macrophages: most potent inhibitor of cytokine release followed by AA
THP-1 cells [3]; listed as Arachidonic acid
  Release of cytokines (TNF-α, MCP-1, IL-6) by THP-1 macrophages compared to control macrophages: decreased cytokine expression, but not to the extent of EPA supplementation

## CCCCCCCCCCCCCCCC(=O)O [C16:0]
THP-1 cells [3]
  Release of cytokines (TNF-α, MCP-1, IL-6) by THP-1 macrophages compared to control macrophages: did not change the amount of cytokines released
  Release of cytokines by THP-1 macrophages at increasing fatty acid concentration: did not change, or increased the amount of cytokines released

## CCCCCCCCCCCCCCCCCC(=O)O [C18:0]
THP-1 cells [3]
  Release of cytokines (TNF-α, MCP-1, IL-6) by THP-1 macrophages compared to control macrophages: did not change the amount of cytokines released
  Release of cytokines by THP-1 macrophages at increasing fatty acid concentration: did not change, or increased the amount of cytokines released

## CC/C=C\C/C=C\C/C=C\C/C=C\C/C=C\C/C=C\CCC(=O)O [DHA, docosahexaenoic acid]
LDLr−/− mice [4]
  IL-8 fluorescence intensity (relative) of brain microvessel: 0.86
  MCP-1 fluorescence intensity (relative) of brain microvessel: 0.93
LDLr−/− mice [5]
  IL-8 fluorescence intensity (relative) of brain hippocampus: 0.46
  TIMP2 fluorescence intensity (relative) of brain hippocampus: 0.23
  TNF-α fluorescence intensity (relative) of brain hippocampus: 0.29
LDLr−/− mice [6]
  TNF-α Concentration in adipose tissue: 0.82 pg/μg protein

## CC/C=C\C/C=C\C/C=C\C/C=C\C/C=C\CCCCCC(=O)O [DPA, docosapentaenoic acid]
LDLr−/− mice [4]
  IL-8 fluorescence intensity (relative) of brain microvessel: 0.96
  MCP-1 fluorescence intensity (relative) of brain microvessel: 0.92
LDLr−/− mice [5]
  IL-8 fluorescence intensity (relative) of brain hippocampus: 0.70
  TIMP2 fluorescence intensity (relative) of brain hippocampus: 0.17
  TNF-α fluorescence intensity (relative) of brain hippocampus: 0.28
LDLr−/− mice [6]
  TNF-α Concentration in adipose tissue: 0.41 pg/μg protein

## CC/C=C\C/C=C\C/C=C\C/C=C\C/C=C\CCCC(=O)O [EPA, eicosapentaenoic acid]
LDLr−/− mice [4]
  IL-8 fluorescence intensity (relative) of brain microvessel: 0.93
  MCP-1 fluorescence intensity (relative) of brain microvessel: 0.96
LDLr−/− mice [5]
  IL-8 fluorescence intensity (relative) of brain hippocampus: 0.72
  TIMP2 fluorescence intensity (relative) of brain hippocampus: 0.63
  TNF-α fluorescence intensity (relative) of brain hippocampus: 0.31
LDLr−/− mice [6]
  TNF-α Concentration in adipose tissue: 0.58 pg/μg protein

## CCCCCCCC/C=C\CCCCCCCC(=O)O [oleic acid]
THP-1 cells [3]
  Release of cytokines (TNF-α, MCP-1, IL-6) by THP-1 macrophages compared to control macrophages: did not change the amount of cytokines released; also recorded: did not change inflammatory cytokine release
  Release of cytokines by THP-1 macrophages at increasing fatty acid concentration: did not change, or increased the amount of cytokines released
